Laboratory results: ChEMBL document CHEMBL1139154, “Inhibitors of HCV NS5B polymerase: synthesis and structure-activity relationships of unsymmetrical 1-hydroxy-4,4-dialkyl-3-oxo-3,4-dihydronaphthalene benzothiadiazine derivatives” (Bioorg Med Chem Lett, 2007)

Tests used:
[1] = Inhibition of HCV 1a NS5B polymerase; design: species or system Hepatitis C virus subtype 1a
Hepatitis C virus [2] = assay: Antiviral activity against HCV 1a replicon in presence of fetal calf serum; assay type: functional, organism-based, Hepacivirus hominis; details: subtype 1a
Hepatitis C virus [3] = assay: Inhibition of HCV 1b NS5B polymerase; design: species or system Hepatitis C virus subtype 1b

Structure (SMILES) | IC50 [1] [nM] | EC50 (Hepatitis C virus [2]) [nM] | IC50 (Hepatitis C virus [3]) [nM]
CC1(CC=C2CCCCC2)C(=O)C(C2=NS(=O)(=O)c3cc(NS(C)(=O)=O)ccc3N2)=C(O)c2ccccc21 (stereo not drawn) | 195 |  | 910
CC(C)=CC[C@]1(C)C(=O)C(C2=NS(=O)(=O)c3cc(NS(C)(=O)=O)ccc3N2)=C(O)c2ccccc21 | 702 |  | 
CC1(CC=C2CCC2)C(=O)C(C2=NS(=O)(=O)c3cc(NS(C)(=O)=O)ccc3N2)=C(O)c2ccccc21 (stereo not drawn) | 87 | 1190 | 425
CC1(CC(O)CO)C(=O)C(C2=NS(=O)(=O)c3cc(NS(C)(=O)=O)ccc3N2)=C(O)c2ccccc21 (stereo not drawn) | 450 |  | 
CC1(C/C=C/c2ccccc2)C(=O)C(C2=NS(=O)(=O)c3cc(NS(C)(=O)=O)ccc3N2)=C(O)c2ccccc21 (stereo not drawn) | 460 |  | 1850
CC1(CCCO)C(=O)C(C2=NS(=O)(=O)c3cc(NS(C)(=O)=O)ccc3N2)=C(O)c2ccccc21 (stereo not drawn) |  | 860 | 
CCOC(=O)/C=C/CC1(C)C(=O)C(C2=NS(=O)(=O)c3cc(NS(C)(=O)=O)ccc3N2)=C(O)c2ccccc21 (stereo not drawn) | 1080 | > 10000 | 5870
CC1(C)C(=O)C(C2=NS(=O)(=O)c3cc(NS(C)(=O)=O)ccc3N2)=C(O)c2ccccc21 | 933 |  | 
CC1(CCCc2ccccc2)C(=O)C(C2=NS(=O)(=O)c3cc(NS(C)(=O)=O)ccc3N2)=C(O)c2ccccc21 (stereo not drawn) | 115 |  | 280
CC1(CC=C2CCCC2)C(=O)C(C2=NS(=O)(=O)c3cc(NS(C)(=O)=O)ccc3N2)=C(O)c2ccccc21 (stereo not drawn) | 93 | 1490 | 550

The remaining lines, values ahead:

IC50 [1] [nM] | EC50 (Hepatitis C virus [2]) [nM] | IC50 (Hepatitis C virus [3]) [nM] | Structure (SMILES)
57 | 2710 | 194 | CC1(CCC2CCCCC2)C(=O)C(C2=NS(=O)(=O)c3cc(NS(C)(=O)=O)ccc3N2)=C(O)c2ccccc21 (stereo not drawn)
38 | 237 | 147 | CC(C)=CCC1(C)C(=O)C(C2=NS(=O)(=O)c3cc(NS(C)(=O)=O)ccc3N2)=C(O)c2ccccc21 (stereo not drawn)
32 | 320 | 70 | CC1(CCC2CCCC2)C(=O)C(C2=NS(=O)(=O)c3cc(NS(C)(=O)=O)ccc3N2)=C(O)c2ccccc21 (stereo not drawn)
43 | 8000 | 193 | CC(C)(O)CCC1(C)C(=O)C(C2=NS(=O)(=O)c3cc(NS(C)(=O)=O)ccc3N2)=C(O)c2ccccc21 (stereo not drawn)
4 | 17 | 7 | CC(C)CCC1(C)C(=O)C(C2=NS(=O)(=O)c3cc(NS(C)(=O)=O)ccc3N2)=C(O)c2ccccc21 (stereo not drawn)
16 | 190 | 36 | CC1(CCC2CCC2)C(=O)C(C2=NS(=O)(=O)c3cc(NS(C)(=O)=O)ccc3N2)=C(O)c2ccccc21 (stereo not drawn)
21 | 160 | 40 | CC1(CC2CC2)C(=O)C(C2=NS(=O)(=O)c3cc(NS(C)(=O)=O)ccc3N2)=C(O)c2ccccc21 (stereo not drawn)
68 | 423 |  | CC(C)CCC1(CCC(C)C)C(=O)C(C2=NS(=O)(=O)c3cc(NS(C)(=O)=O)ccc3N2)=C(O)c2ccccc21
39 | 2170 | 70 | CC(C)(Cl)CCC1(C)C(=O)C(C2=NS(=O)(=O)c3cc(NS(C)(=O)=O)ccc3N2)=C(O)c2ccccc21 (stereo not drawn)
20 | 184 |  | CCCC1(C)C(=O)C(C2=NS(=O)(=O)c3cc(NS(C)(=O)=O)ccc3N2)=C(O)c2ccccc21 (stereo not drawn)
18 | 690 | 225 | C=CCC1(C)C(=O)C(C2=NS(=O)(=O)c3cc(NS(C)(=O)=O)ccc3N2)=C(O)c2ccccc21 (stereo not drawn)
19 | 134 | 32 | CC(C)=CC[C@@]1(C)C(=O)C(C2=NS(=O)(=O)c3cc(NS(C)(=O)=O)ccc3N2)=C(O)c2ccccc21
